# From patent US5786480A, “4-substituted pyrazoloquinoline derivatives” (Schering Corporation, priority 1996, dated 1998)
# Experiments:
# [1] = system: HSV Early Gene Expression; assay: Transient Expression Assay for Effects Against HSV Early Gene Expression (beta Galactosidase Assay, βgal); assay type: cell-based
# Description: (§1) The compound toxicity assay (3H-LEU), Plaque Reduction Assay for HSV Antiviral Activity (Plaque), and Transient Expression Assay for Effects Against HSV Early Gene Expression (β Galactosidase Assay or βgal) were carried out as set forth in U.S. Pat. No. 5,175,151 which is hereby incorporated by reference.
# [2] = system: HSV; assay: Plaque Reduction Assay for HSV Antiviral Activity (Plaque); assay type: cell-based
# Description: as §1
# [3] = compound toxicity assay (3H-LEU); assay type: cell-based
# Description: as §1
# [4] = system: HSV; conditions: humans; Haines et al.; cited from earlier work
# [5] = system: herpes virus; conditions: addition of panthothenic acid or its alcohol and salt forms, dexpanthenol and pantothenate; Haines et al.; cited from earlier work
# [6] = system: HSV-2; conditions: Haines et al., U.S. Pat. No. 4,757,088; cited from earlier work
# [7] = system: HSV-1; conditions: Haines et al., U.S. Pat. No. 4,757,088; cited from earlier work
# [8] = system: herpes virus; conditions: mammals; Haines et al., U.S. Pat. No. 4,757,088; cited from earlier work
SMILES,IC50 [1] [µg/mL],IC50 [2] [µg/mL],also measured
COc1ccc2nc3[nH]nc(C)c3c(NCC(=O)O)c2c1 [(27)],20,,
COc1ccc2nc3[nH]nc(C)c3c(NCCOCCO)c2c1 [(1)],5,,
CNCC(=O)n1nc(C)c2cc3cc(OC)ccc3nc21 [(24)],0.2,2,
COc1ccc2nc3[nH]nc(C)c3c(NCC(=O)NCCN3CCCCC3)c2c1 [(29)],6,20,
CCCCNc1c2cc(OC)ccc2nc2[nH]nc(C)c12 [(17)],< 3,,CC50 [3]: 3.2 µg/mL
COc1ccc2nc3c(c(C)nn3C(=O)[C@@H](C)N)c(Cl)c2c1 [(33)],0.5,0.2,
COc1ccc2nc3[nH]nc(C)c3c(NCCCN(C)C)c2c1 [(20)],0.8,,
CCC(C)[C@H](N)C(=O)n1nc(C)c2c(Cl)c3cc(OC)ccc3nc21 (some centres unmarked) [(31)],0.2,0.8,
COc1ccc2nc3[nH]nc(C)c3c(NCC(=O)NCCN3CCOCC3)c2c1 [(30)],2,20,
"CCN(CC)CC(=O)Nc1c(C)cccc1C [lidocaine, 2-(diethylamino)-N-(2,6-dimethylphenyl)acetamide]",,,effective in the treatment of HSV oral and genital lesions [4]: particularly effective; enhancement of antiviral activity [5]: significantly enhances; antiviral agent in cell culture against HSV-2 [6]: antiviral agent in cell culture against HSV-1 and HSV-2; antiviral agent in cell culture against HSV-1 [7]: antiviral agent in cell culture against HSV-1; able to treat herpes virus infections [8]: able to treat herpes virus infections of mammals
COc1ccc2nc3c(cc2c1)c(C)nn3C(=O)C(C)(C)N [(25)],0.2,20,
CCCCNc1c2cc(C)ccc2nc2[nH]nc(C)c12 [(18)],3,,CC50 [3]: 21.5 µg/mL
COc1ccc2nc3c(cc2c1)c(C)nn3C(=O)[C@H](C)N [(22)],0.2,0.2,
COc1ccc2nc3[nH]nc(C)c3c(NCCc3ccccn3)c2c1 [(5)],1,7.5,
CCCCNc1c2cc(OC)cc(C)c2nc2[nH]nc(C)c12 [(19)],3,,CC50 [3]: 21.5 µg/mL
COc1ccc2nc3[nH]nc(C)c3c(NCCN3CCOCC3)c2c1 [(4)],20,10,CC50 [3]: 100 µg/mL
COc1ccc2nc3c(c(C)nn3C(=O)[C@H](C)N)c(Cl)c2c1 [(32)],1.8,0.2,
COc1ccc2nc3c(c(C)nn3C(=O)[C@@H](N)C(C)C)c(NCCN3CCOCC3)c2c1 [(23)],0.2,20,
COc1ccc2nc3[nH]nc(C)c3c(NCC(=O)NCCCN3CCCC3=O)c2c1 [(28)],2,20,
COc1ccc2nc3c(cc2c1)c(C)nn3C(=O)[C@@H](N)C(C)C [(21)],0.2,20,
COc1ccc2nc3[nH]nc(C)c3c(NCCO)c2c1 [(3)],1.3,2.3,CC50 [3]: 8.2 µg/mL
